This is an account of results in PubChem BioAssay AID434951 (Broad Institute, 2010).

The source made the active and inactive calls.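 Rule for the calls: active = a fitted half-maximal concentration EC50 for the rise in nuclear signal no higher than ten times the top dose tested; inconclusive = flat fit with activity between 30% and 70%, or unusable fit; inactive = EC50 beyond ten times the top dose.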

Chain of Hypoxia-inducible factor 1-alpha (Homo sapiens) (Q16665 whole entry, looked up): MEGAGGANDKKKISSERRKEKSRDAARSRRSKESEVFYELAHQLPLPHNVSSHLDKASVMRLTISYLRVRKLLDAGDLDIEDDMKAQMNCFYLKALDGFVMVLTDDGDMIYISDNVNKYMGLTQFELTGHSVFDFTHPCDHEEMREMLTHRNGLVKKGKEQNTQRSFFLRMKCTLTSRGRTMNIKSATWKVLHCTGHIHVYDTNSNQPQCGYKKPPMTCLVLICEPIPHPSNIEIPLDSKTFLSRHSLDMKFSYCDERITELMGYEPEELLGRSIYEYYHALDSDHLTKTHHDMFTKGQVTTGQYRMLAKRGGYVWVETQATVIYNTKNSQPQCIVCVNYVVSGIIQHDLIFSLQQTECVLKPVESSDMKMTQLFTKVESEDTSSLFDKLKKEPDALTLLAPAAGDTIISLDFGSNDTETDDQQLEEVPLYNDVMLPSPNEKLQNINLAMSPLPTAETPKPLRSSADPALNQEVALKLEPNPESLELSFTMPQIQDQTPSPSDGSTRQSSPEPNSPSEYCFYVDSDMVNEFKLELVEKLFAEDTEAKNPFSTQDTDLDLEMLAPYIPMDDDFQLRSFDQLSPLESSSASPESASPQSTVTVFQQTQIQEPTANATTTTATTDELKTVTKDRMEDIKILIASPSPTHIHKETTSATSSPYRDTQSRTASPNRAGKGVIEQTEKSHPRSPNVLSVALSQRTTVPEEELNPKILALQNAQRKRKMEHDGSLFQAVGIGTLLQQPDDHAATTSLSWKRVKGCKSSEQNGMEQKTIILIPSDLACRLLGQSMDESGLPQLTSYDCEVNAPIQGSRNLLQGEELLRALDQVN

The test concerns the target Hypoxia-inducible factor 1-alpha (Homo sapiens) (UniProt Q16665). Kind of test: HIF pathway activation, GFP-HIF1alpha translocation – imaging, fluorescence, U2OS GFP-HIF1alpha, confirmation (AID 434951). As to conditions: U2OS GFP-HIF1alpha nuclear intensity, high-content imaging.
In the case of `CCc1cc(C(=O)N/N=C/c2ccc(O)cc2O)c2ccccc2n1`, the EC50 – broadly, the concentration that produces a half-maximal response – was 17.5 µM.

Turning to `CC[C@@]1(O)C(=O)OCc2c1cc1n(c2=O)Cc2cc3c(N)cccc3nc2-1`, the EC50 was > 35 µM (inactive).

Take `Cc1ccc(C)c(-n2nnnc2Sc2nnnn2-c2ccccc2)c1`: the EC50 was > 35 µM (inactive).

Take `CC(=O)Nc1ccc2nc(NC(=O)COc3ccccc3C)sc2c1`: the EC50 was > 35 µM (inactive).

As for `Cc1nn(C)cc1S(=O)(=O)NCc1ccc2c(c1)OCO2`, the EC50 was > 35 µM (inactive).

Take `CCCC(=O)NC(c1ccc(Cl)cc1Cl)c1ccc2cccnc2c1O` (stereo not given): the EC50 is 2.35 µM.

Consider `COc1ccc(C(=O)N2CCCCCC2)cc1S(=O)(=O)N1CCOCC1`, for which the EC50 is > 35 µM (inactive).

For the molecule `Cc1ccc(-c2nc(CS(=O)(=O)CC(=O)NC3CCC(C)CC3)c(C)o2)cc1` (stereo not given), the EC50 is > 35 µM (inactive).

For the molecule `O=C1CCCC(O)=C1C=Nc1cccc(C(F)(F)F)c1`, the EC50 is > 35 µM (inactive).

On to `Cc1snc(SCC(=O)N/N=C(\N)COc2cccc(C(F)(F)F)c2)c1C#N`, for which the EC50 is 22.5 µM.

In the case of `CCn1c(C)nc2cc(C(=O)N/N=C/c3cccc(O)c3O)ccc21`, the EC50 is 24.6 µM.

On to `C=CCN(c1ccccc1)S(=O)(=O)c1cccc(C(=O)Nc2ncccc2O)c1`, for which the EC50 was > 35 µM (inactive).

Consider `Cc1cccc(C(=O)O/N=C(\N)c2ccc(Cl)cc2)c1`, for which the EC50 is > 35 µM (inactive).

On to `CCOC(=O)c1sc(N(Cc2ccccc2)C(=O)COC(=O)c2ccc(O)cc2)nc1C`, for which the EC50 is 12.2 µM.

Take `Cc1ccc(/C=N/NC(=O)CN2CCN(Cc3ccccc3Cl)CC2)o1`: the EC50 was > 35 µM (inactive).

With `COc1ccc(-c2cc(C(F)(F)F)nc(S(=O)(=O)CCCC(=O)Nc3cc(C)on3)n2)cc1OC`, the EC50 was > 35 µM (inactive).

In the case of `[O-]/C(=C(\C(=S)Nc1cccc2ccccc12)[n+]1ccccc1)c1cccs1`, the EC50 was > 35 µM (inactive).

Consider `CCOCC(=O)Nc1ccc(S(=O)(=O)N2CCC(c3nc4ccccc4[nH]3)CC2)cc1`, for which the EC50 was > 35 µM (inactive).

`O=C(N/N=C/c1cc(Br)ccc1O)c1cccc(N2CCCC2=O)c1`: the EC50 was 13.5 µM.

In the case of `CN(C)/N=C/C=C1\CCC/C(=C/c2cccs2)C1=O`, the EC50 is > 35 µM (inactive).

Consider `CC(=O)NC(c1ccc(Cl)cc1Cl)c1ccc2cccnc2c1O` (stereo not given), for which the EC50 is 12.8 µM.

For the molecule `COc1cccc(C(=O)CN2C(=O)C(C)(C)Oc3ccc(C(=O)N4CCOCC4)cc32)c1`, the EC50 is > 35 µM (inactive).

With `CCCc1nc2ccccc2c(=O)n1/N=C/c1ccccc1O`, the EC50 was > 35 µM (inactive).

For the molecule `COc1cccc(C(=O)SC2=NCCS2)c1`, the EC50 was > 35 µM (inactive).

For the molecule `COc1ccc(N/C=C\C(=O)c2ccc3c(c2)OCO3)cc1`, the EC50 was > 35 µM (inactive).

Turning to `O=S(=O)(NCc1nnc2c(C(F)(F)F)cc(Cl)cn12)c1ccccc1`, the EC50 is > 35 µM (inactive).

Consider `COc1cc2ccccc2cc1C(=O)NNC(=O)c1ccccc1O`, for which the EC50 is > 35 µM (inactive).

`O=C(C[n+]1ccn(CCCNP2(=O)C=C(c3ccccc3)OC(c3ccccc3)=C2)c1)c1cccs1`: the EC50 was > 35 µM (inactive).

With `O=C(CCc1ccccc1)N/N=C/c1cc(Br)ccc1O`, the EC50 was 13.2 µM.

As to `Cc1ccc2[nH]c3c(=O)n(CC(=O)NCCCN(C)Cc4ccccc4)ncc3c2c1`, the EC50 was > 35 µM (inactive).

On to `COc1ccc(-c2nnc(-c3cc4c(ccc5ccccc54)oc3=O)o2)cc1`, for which the EC50 was > 35 µM (inactive).

On to `Cc1ccc(S(=O)(=O)N(C)CC(=O)NCCCn2ccnc2)cc1`, for which the EC50 was > 35 µM (inactive).

Take `O=C(CN1CCCC1)N/N=C/c1c(O)ccc2ccccc12`: the EC50 is 8.15 µM.

As for `CCCCNC(=O)c1cc(-c2ccc(F)cc2)on1`, the EC50 was 9.23 µM.

Take `CCCc1sc(N/N=C/c2ccccn2)nc1-c1ccc(F)cc1`: the EC50 is 6.01 µM.

As for `O=C(NC(=S)Nc1ccccn1)c1cccc([N+](=O)[O-])c1`, the EC50 is > 35 µM (inactive).

In the case of `CCOCCCNC(=S)Nc1cc(C)cc(C)c1`, the EC50 was > 35 µM (inactive).

As for `CCCCNC(=O)CN1C(=O)COc2ccc(S(=O)(=O)N3CCCCCC3)cc21`, the EC50 is > 35 µM (inactive).

On to `Cc1ccccc1OCC(=O)Nc1ccc(N2CCN(C)CC2)c(Cl)c1`, for which the EC50 was > 35 µM (inactive).

In the case of `O=C(NCCCn1ccnc1)c1cc(-c2cccs2)on1`, the EC50 is 2.68 µM.
